Data: ChEMBL document CHEMBL2390904, “Bioavailable affinity label for collagen prolyl 4-hydroxylase” (Bioorg Med Chem, 2013)
Active and inactive are the calls of the source. The rule behind the calls is not given here.

Columns and labels:
[1] = (§1) Toxicity in L4-stage of Caenorhabditis elegans expressing dpy-18 assessed as embyronic lethality after 24 hrs by light microscopic analysis; type: organism-based; conditions: in vivo, read-out: LD50
Caenorhabditis elegans = test: as §1; type: organism-based; conditions: in vivo, 24 h
[2] = Irreversible inhibition of human P4H expressed in Escherichia coli using dansyl-Gly-phe-pro-Gly-OEt and alpha-ketoglutarate as substrate incubated up to 15 mins followed by substrate addition by Kitz-Wilson plot analysis
[3] = Binding affinity to human P4H expressed in Escherichia coli at 13 mM after 30 mins by SDS-PAGE analysis
[4] = Binding affinity to human P4H expressed in Escherichia coli using dansyl-Gly-phe-pro-Gly-OEt as substrate at 356 mM incubated up to 5 mins followed by substrate addition by competition assay in presence of alpha-ketoglutarate

O=C([O-])CCC(=O)C1CO1.[Na+] (racemic)
LC50 at 24 h [1]: 110 µM | Activity (Caenorhabditis elegans): Dose-dependent effect | inhibition [2]: Dose-dependent effect | Activity [3]: Active | Activity [4]: Active
